# According to US20180353483A1, “PHARMACEUTICAL COMPOSITIONS AND METHODS FOR INDOLEAMINE, 2, 3-DIOXYGENASE INHIBITION AND INDICATIONS THEREFOR” (Incyte Corporation, priority 2015, published 2018):
# Where two headings read alike, the source gives them in different places.
# Experiment: Pharmacokinetics of Compound 1 in combination with MK-3475 in subjects with various cancers
# Format: in vivo, human
# Description: The subjects were not limited to a specific cancers and study include subjects with various cancers. […] One treatment cycle consisted of 21 days. […] Additional subjects were enrolled in a cohort to achieve the minimum of 3 evaluable subjects if dropouts or dose interruptions or reductions occur that result in a subject being non-evaluable for DLTs. […] An additional safety cohort was opened at 100 mg BID in parallel to 300 mg BID being tested. This may also be limited to subjects with melanoma, NSCLC, or specific cancer types from among those included in Phase 1. The RP2D was selected from the evaluated safety expansions.
# If a dose was missed by more than 4 hours, that dose was skipped and was resumed at the scheduled time.
# Pharmacokinetic samples were obtained at the visits of Cycle 1 Day 1, Cycle 1 Day 8 and Cycle 2 Day 1. […] The exact date and time of the PK blood draws were recorded in the eCRF along with the date and time of the last dose of study drug and details of the last meal preceding the blood draw.
# The planned PK time points were used for preliminary PK analyses.
# [1] = subjects with dose reduction before C4D1, 50 mg BID, C1D8, mean ± SD
compound,measurement,setting,value
"NS(=O)(=O)NCCNc1nonc1C(=NO)Nc1ccc(F)c(Br)c1 [Compound 1, 4-({2-[(aminosulfonyl)amino]ethyl}amino)-N-(3-bromo-4-fluorophenyl)-N′-hydroxy-1,2,5-oxadiazole-3-carboximidamide]",AUC(0-t),"human, plasma, oral, 100 mg, Diagnosis DLBCL, first dose, geometric mean, read-out: AUC0-t",1.9 µM·h
same,Cmax,"human, plasma, oral, 100 mg, Diagnosis DLBCL, first dose, mean ± SD",0.732 ± 0.37 µM
same,tmax,"human, plasma, oral, 100 mg, Diagnosis DLBCL, first dose, median, read-out: tmax",3 h
same,Cmax,"human, plasma, oral, 100 mg, Diagnosis GU, first dose, geometric mean",0.878 µM
same,AUC(0-t),"human, plasma, oral, 100 mg, Diagnosis GU, first dose, geometric mean, read-out: AUC0-t",2.71 µM·h
same,Cmax,"human, plasma, oral, 100 mg, Diagnosis GU, first dose, mean ± SD",0.986 ± 0.492 µM
same,AUC(0-t),"human, plasma, oral, 100 mg, Diagnosis GU, first dose, mean ± SD, read-out: AUC0-t",2.96 ± 1.28 µM·h
same,AUC(0-t),"human, plasma, oral, 100 mg, Diagnosis MEL, first dose, geometric mean, read-out: AUC0-t",2.37 µM·h
same,Cmax,"human, plasma, oral, 100 mg, Diagnosis MEL, first dose, mean ± SD",0.87 ± 0.347 µM
same,AUC(0-t),"human, plasma, oral, 100 mg, Diagnosis MEL, first dose, mean ± SD, read-out: AUC0-t",2.48 ± 0.773 µM·h
same,Cmax,"human, plasma, oral, 100 mg, Diagnosis NSCLC PD-L1 High, first dose, geometric mean",0.878 µM
same,AUC(0-t),"human, plasma, oral, 100 mg, Diagnosis NSCLC PD-L1 High, first dose, geometric mean, read-out: AUC0-t",2.62 µM·h
same,Cmax,"human, plasma, oral, 100 mg, Diagnosis NSCLC PD-L1 High, first dose, mean ± SD",1.02 ± 0.573 µM
same,AUC(0-t),"human, plasma, oral, 100 mg, Diagnosis NSCLC PD-L1 High, first dose, mean ± SD, read-out: AUC0-t",2.88 ± 1.3 µM·h
same,tmax,"human, plasma, oral, 100 mg, Diagnosis NSCLC PD-L1 High, first dose, median, read-out: tmax",1.5 h
same,Cmax,"human, plasma, oral, 100 mg, Diagnosis NSCLC PD-L1 Low/NE, first dose, geometric mean",0.857 µM
same,AUC(0-t),"human, plasma, oral, 100 mg, Diagnosis NSCLC PD-L1 Low/NE, first dose, geometric mean, read-out: AUC0-t",2.66 µM·h
same,AUC(0-t),"human, plasma, oral, 100 mg, Diagnosis NSCLC PD-L1 Low/NE, first dose, mean ± SD, read-out: AUC0-t",2.77 ± 0.839 µM·h
same,Cmax,"human, plasma, oral, 100 mg, Diagnosis OC, first dose, geometric mean",0.886 µM
same,AUC(0-t),"human, plasma, oral, 100 mg, Diagnosis OC, first dose, geometric mean, read-out: AUC0-t",2.99 µM·h
same,Cmax,"human, plasma, oral, 100 mg, Diagnosis OC, first dose, mean ± SD",0.967 ± 0.405 µM
same,AUC(0-t),"human, plasma, oral, 100 mg, Diagnosis OC, first dose, mean ± SD, read-out: AUC0-t",3.16 ± 1.1 µM·h
same,tmax,"human, plasma, oral, 100 mg, Diagnosis RCC, first dose, individual values of 2 subjects, read-out: tmax",3 h
same,Cmax,"human, plasma, oral, 100 mg, Diagnosis SCCHN, first dose, geometric mean",0.649 µM
same,AUC(0-t),"human, plasma, oral, 100 mg, Diagnosis SCCHN, first dose, geometric mean, read-out: AUC0-t",2.06 µM·h
same,Cmax,"human, plasma, oral, 100 mg, Diagnosis SCCHN, first dose, mean ± SD",0.769 ± 0.439 µM
same,Cmax,"human, plasma, oral, 100 mg, Diagnosis TNBC, first dose, geometric mean",0.898 µM
same,AUC(0-t),"human, plasma, oral, 100 mg, Diagnosis TNBC, first dose, geometric mean, read-out: AUC0-t",2.82 µM·h
same,Cmax,"human, plasma, oral, 100 mg, Diagnosis TNBC, first dose, mean ± SD",1.03 ± 0.574 µM
same,AUC(0-t),"human, plasma, oral, 100 mg, Diagnosis TNBC, first dose, mean ± SD, read-out: AUC0-t",3.08 ± 1.39 µM·h
same,AUC(0-t),"human, plasma, oral, 100 mg, by dose, 100 mg BID, steady state C1D8, geometric mean, read-out: AUC0-12 h (converted)",3.57 µM·h
same,AUC(0-t),"human, plasma, oral, 100 mg, by dose, 100 mg BID, steady state C1D8, mean ± SD, read-out: AUC0-12 h (converted)",3.82 ± 1.37 µM·h
same,AUC(0-t),"human, plasma, oral, 100 mg, by dose, 100 mg, first dose, mean ± SD, read-out: AUC0-t",2.47 ± 0.861 µM·h
same,AUC(0-t),"human, plasma, oral, 300 mg, Cohort 6, 300 mg BID, steady state C1D8, geometric mean, read-out: AUC0-12 h (converted)",11.3 µM·h
same,AUC(0-t),"human, plasma, oral, 300 mg, Cohort 6, 300 mg BID, steady state C1D8, mean ± SD, read-out: AUC0-12 h (converted)",12.3 ± 6.09 µM·h
same,Cmax,"human, plasma, oral, 300 mg, Cohort 6, 300 mg, first dose, geometric mean",1.79 µM
same,AUC(0-t),"human, plasma, oral, 300 mg, Cohort 6, 300 mg, first dose, geometric mean, read-out: AUC0-t",6.92 µM·h
same,Cmax,"human, plasma, oral, 300 mg, Cohort 6, 300 mg, first dose, mean ± SD",2.22 ± 1.72 µM
same,AUC(0-t),"human, plasma, oral, 300 mg, Cohort 6, 300 mg, first dose, mean ± SD, read-out: AUC0-t",7.47 ± 3.32 µM·h
same,AUC(0-t),"human, plasma, oral, 300 mg, Cohort 7, 300 mg BID, steady state C1D8, geometric mean, read-out: AUC0-12 h (converted)",11.3 µM·h
same,Cmax,"human, plasma, oral, 300 mg, Cohort 7, 300 mg BID, steady state C1D8, mean ± SD",2.75 ± 1.22 µM
same,AUC(0-t),"human, plasma, oral, 300 mg, Cohort 7, 300 mg BID, steady state C1D8, mean ± SD, read-out: AUC0-12 h (converted)",12.2 ± 5.92 µM·h
same,Cmax,"human, plasma, oral, 300 mg, Cohort 7, 300 mg, first dose, geometric mean",2.17 µM
same,AUC(0-t),"human, plasma, oral, 300 mg, Cohort 7, 300 mg, first dose, geometric mean, read-out: AUC0-t",6.88 µM·h
same,Cmax,"human, plasma, oral, 300 mg, Cohort 7, 300 mg, first dose, mean ± SD",2.33 ± 0.925 µM
same,AUC(0-t),"human, plasma, oral, 300 mg, Cohort 7, 300 mg, first dose, mean ± SD, read-out: AUC0-t",7.38 ± 2.86 µM·h
same,AUC(0-t),"human, plasma, oral, 300 mg, by dose, 300 mg BID, steady state C1D8, geometric mean, read-out: AUC0-12 h (converted)",11.3 µM·h
same,Cmax,"human, plasma, oral, 300 mg, by dose, 300 mg BID, steady state C1D8, mean ± SD",2.74 ± 1.19 µM
same,AUC(0-t),"human, plasma, oral, 300 mg, by dose, 300 mg BID, steady state C1D8, mean ± SD, read-out: AUC0-12 h (converted)",12.3 ± 5.81 µM·h
same,AUC(0-t),"human, plasma, oral, 300 mg, by dose, 300 mg, first dose, geometric mean, read-out: AUC0-t",6.89 µM·h
same,AUC(0-t),"human, plasma, oral, 300 mg, by dose, 300 mg, first dose, mean ± SD, read-out: AUC0-t",7.41 ± 2.95 µM·h
same,Cmax,"human, plasma, oral, 300 mg, subjects with dose reduction before C4D1, 300 mg BID, C1D8, geometric mean",3 µM
same,AUC(0-t),"human, plasma, oral, 300 mg, subjects with dose reduction before C4D1, 300 mg BID, C1D8, geometric mean, read-out: AUC0-12 h (converted)",13.3 µM·h
same,Cmax,"human, plasma, oral, 300 mg, subjects with dose reduction before C4D1, 300 mg BID, C1D8, mean ± SD",3.18 ± 1.28 µM
same,AUC(0-t),"human, plasma, oral, 300 mg, subjects with dose reduction before C4D1, 300 mg BID, C1D8, mean ± SD, read-out: AUC0-12 h (converted)",14.6 ± 7.4 µM·h
same,dose proportionality of exposures,non-compartmental analysis,approximate dose-proportional exposures
same,AUC0-12 h,"subjects with dose reduction before C4D1, 50 mg BID, C1D8, geometric mean",(2.29) μM * h
same,AUC0-12 h,[1],2.41 ± 0.980 µM·h
same,CL/F,[1],52.0 ± 17.1 L/h
same,tmax,"subjects with dose reduction before C4D1, 50 mg BID, C1D8, median",2.00 h
same,CL/F,"subjects with dose reduction before C4D1, 300 mg BID, C1D8, mean ± SD",55.4 ± 23.0 L/h
same,tmax,"subjects with dose reduction before C4D1, 300 mg BID, C1D8, median",2.00 h
